In patent publication US20150197497A1, “SELECTIVE INHIBITORS OF HISTONE DEACETYLASE ISOFORM 6 AND METHODS THEREOF” (DANA-FARBER CANCER INSTITUTE, INC., priority 2011, published 2015):

What was measured:
[1] = target: T1, HDAC2 (Homo sapiens, UniProt Q92769); experiment: In vitro HDAC enzyme inhibition assay, HDAC2; type: biochemical; details: for HDAC2/HDAC6 in vitro selectivity: ratio of IC50 for HDAC2 relative to that of HDAC6; for IC50: recombinant full-length HDAC2, substrate MAZ1600 22 μM
T1 construct: Recombinant, full-length HDAC protein (BPS Biosciences) was incubated with fluorophore conjugated substrate; purchased BPS Biosciences
Experimental: (§1) In vitro Histone Deacetylase enzyme assays were performed using Class I (isoforms: HDAC1, HDAC2, HDAC3 and HDAC8), class IIa (isoforms: HDAC4, HDAC5, HDAC7 and HDAC9) and class IIb (isoform HDAC6).
(§2) HDAC activities were determined in vitro with an optimized homogenous assay performed in a 384-well plate. Recombinant, full-length HDAC protein (BPS Biosciences) was incubated with fluorophore conjugated substrate, MAZ1600 and MAZ1675, at Km=[S]. […] Reactions were performed in assay buffer (50 mM HEPES, 100 mM KCl, 0.001% Tween-20, 0.05% BSA, 200 μM tris(2-carboxyethyl)phosphine (TCEP), pH 7.4) and followed for fluorogenic release of 7-amino-4-methylcoumarin from substrate upon deacetylase and trypsin enzymatic activity. Fluorescence measurements were obtained every five minutes using a multilabel plate reader and plate-stacker (Envision; Perkin-Elmer). Each plate was analyzed by plate repeat, and the first derivative within the linear range was imported into analytical software (Spotfire DecisionSite and GraphPad Prism). Replicate experimental data from incubations with inhibitor were normalized to controls.

[2] = target: T2, HDAC7 (Homo sapiens, UniProt Q8WUI4); experiment: In vitro HDAC enzyme inhibition assay, HDAC7; type: biochemical; details: for HDAC7/HDAC6 in vitro selectivity: ratio of IC50 for HDAC7 relative to that of HDAC6; for IC50: recombinant full-length HDAC7, substrate MAZ1675 22 μM; for selectivity toward HDAC6 compared to HDAC7 (in words): tested in vitro
T2 construct: Recombinant, full-length HDAC protein (BPS Biosciences) was incubated with fluorophore conjugated substrate; purchased BPS Biosciences
T2 sequence (Q8WUI4 1-952): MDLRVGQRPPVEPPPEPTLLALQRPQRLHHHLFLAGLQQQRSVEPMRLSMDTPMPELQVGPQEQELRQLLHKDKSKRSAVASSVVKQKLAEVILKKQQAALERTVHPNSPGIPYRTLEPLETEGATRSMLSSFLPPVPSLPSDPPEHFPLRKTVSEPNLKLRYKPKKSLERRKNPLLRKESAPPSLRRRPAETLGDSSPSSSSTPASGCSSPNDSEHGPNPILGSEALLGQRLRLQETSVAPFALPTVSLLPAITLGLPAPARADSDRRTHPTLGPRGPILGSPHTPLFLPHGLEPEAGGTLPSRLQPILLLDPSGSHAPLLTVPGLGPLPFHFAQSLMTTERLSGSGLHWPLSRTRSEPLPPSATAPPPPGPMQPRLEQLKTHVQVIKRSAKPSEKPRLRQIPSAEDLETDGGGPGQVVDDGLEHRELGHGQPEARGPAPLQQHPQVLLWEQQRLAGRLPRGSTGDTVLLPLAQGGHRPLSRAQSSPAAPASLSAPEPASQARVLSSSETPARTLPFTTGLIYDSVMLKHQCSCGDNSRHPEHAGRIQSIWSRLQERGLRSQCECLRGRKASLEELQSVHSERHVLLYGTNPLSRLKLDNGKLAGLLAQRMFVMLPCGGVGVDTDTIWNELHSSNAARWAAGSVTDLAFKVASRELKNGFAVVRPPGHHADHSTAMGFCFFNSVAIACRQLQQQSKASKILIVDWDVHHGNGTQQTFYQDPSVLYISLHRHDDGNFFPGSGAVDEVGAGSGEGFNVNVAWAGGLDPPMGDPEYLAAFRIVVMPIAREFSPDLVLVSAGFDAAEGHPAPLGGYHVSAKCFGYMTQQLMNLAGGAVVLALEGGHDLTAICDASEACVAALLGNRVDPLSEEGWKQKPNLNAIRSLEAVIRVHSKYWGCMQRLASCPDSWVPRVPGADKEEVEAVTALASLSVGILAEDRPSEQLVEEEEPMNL
Experimental: as §1, §2

T1 sequence (Q92769 whole entry): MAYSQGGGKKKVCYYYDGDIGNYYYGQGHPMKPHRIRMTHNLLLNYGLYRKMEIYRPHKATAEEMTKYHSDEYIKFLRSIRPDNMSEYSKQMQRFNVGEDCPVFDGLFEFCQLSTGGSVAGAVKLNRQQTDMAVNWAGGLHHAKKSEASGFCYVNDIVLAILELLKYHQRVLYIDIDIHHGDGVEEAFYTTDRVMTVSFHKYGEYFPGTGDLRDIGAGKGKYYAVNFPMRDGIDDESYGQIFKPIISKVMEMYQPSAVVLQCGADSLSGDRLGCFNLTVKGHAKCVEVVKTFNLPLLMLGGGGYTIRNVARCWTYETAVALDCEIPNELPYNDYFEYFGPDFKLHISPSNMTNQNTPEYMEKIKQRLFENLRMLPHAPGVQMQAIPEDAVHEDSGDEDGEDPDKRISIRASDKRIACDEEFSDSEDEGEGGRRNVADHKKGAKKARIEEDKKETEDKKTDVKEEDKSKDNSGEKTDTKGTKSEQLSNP

SMILES	HDAC2/HDAC6 in vitro selectivity [1]	IC50 [1]	HDAC7/HDAC6 in vitro selectivity [2]	IC50 [2]	selectivity toward HDAC6 compared to HDAC7 (in words) [2]
Cc1ccc2c(c1)nc(C(F)(F)F)n2Cc1ccc(C(=O)NO)cc1 [A2, N-hydroxy-4-((5-methyl-2-(trifluoromethyl)-1H-benzo[d]imidazol-1-yl)methyl)benzamide]	553	169 nM	348	106 nM	
Cc1ccc2c(c1)ncn2Cc1ccc(C(=O)NO)cc1 [A8, N-hydroxy-4-((5-methyl-1H-benzo[d]imidazol-1-yl)methyl)benzamide]	762	290 nM	1098	418 nM	
O=C(NO)c1ccc(Cn2c(=O)[nH]c3cc(Cl)ccc32)cc1 [B4, 4-((5-chloro-2-oxo-2,3-dihydro-1H-benzo[d]imidazol-1-yl)methyl)-N-hydroxybenzamide]	210	5.3 nM	3153	79.6 nM	
O=C(NO)c1ccc(Cn2cnc3cc(Br)ccc32)cc1 [A11, 4-((5-bromo-1H-benzo[d]imidazol-1-yl)methyl)-N-hydroxybenzamide]	1601	26.7 nM	4265	71.1 nM	
O=C(NO)c1ccc(Cn2nnc3cc(Br)ccc32)cc1 [C5, 4-((5-bromo-1H-benzo[d][1,2,3]triazol-1-yl)methyl)-N-hydroxybenzamide]	3277	84.5 nM	11817	305 nM	
Cc1ccc2c(c1)[nH]c(=O)n2Cc1ccc(C(=O)NO)cc1 [B2, N-hydroxy-4-((5-methyl-2-oxo-2,3-dihydro-1H-benzo[d]imidazol-1-yl)methyl)benzamide]	4997	14.3 nM	55678	159 nM	exceptionally high selectivity (Inhibitors with in vitro selectivity values for HDAC6 of at least 30,000 are considered to have exceptionally high selectivity toward HDAC6)
O=C(NO)c1ccc(Cn2c(=O)[nH]c3ccccc32)cc1 [B1, N-hydroxy-4-((2-oxo-2,3-dihydro-1H-benzo[d]imidazol-1-yl)methyl)benzamide]	6974	101 nM	30509	443 nM	exceptionally high selectivity (Inhibitors with in vitro selectivity values for HDAC6 of at least 30,000 are considered to have exceptionally high selectivity toward HDAC6)
O=C(NO)c1ccc(Cn2cnc3cc(Cl)ccc32)cc1 [A10, 4-((5-chloro-1H-benzo[d]imidazol-1-yl)methyl)-N-hydroxybenzamide]	1364	94.1 nM	4029	278 nM	
COc1ccc2c(c1)ncn2Cc1ccc(C(=O)NO)cc1 [A12, N-hydroxy-4-((5-methoxy-1H-benzo[d]imidazol-1-yl)methyl)benzamide]	1125	244 nM	4070	883 nM	
O=C(NO)c1ccc(Cn2cnc3cc(F)ccc32)cc1 [A9, 4-((5-fluoro-1H-benzo[d]imidazol-1-yl)methyl)-N-hydroxybenzamide]	3132	208 nM	4925	327 nM	
COc1ccc2c(c1)[nH]c(=O)n2Cc1ccc(C(=O)NO)cc1 [B7, N-hydroxy-4-((5-methoxy-2-oxo-2,3-dihydro-1H-benzo[d]imidazol-1-yl)methyl)benzamide]	991	25.5 nM	15934	410 nM	
